Measurements published in US9206130B2, “Quinoline derivatives as AXL kinase inhibitors” (Max-Planck-Gesellschaft zur Förderung der Wissenschaften …, priority 2008, dated 2015).

Legend:
[1] = target: T1, wild type AXL (wtAXL) receptor tyrosine kinase (Homo sapiens, UniProt P30530); experiment: NIH-3T3-AXL cellular tyrosine kinase assay (inhibition of AXL phosphorylation); type: cell-based; settings: AXL phosphorylation in NIH-3T3-AXL (clone 22) cells, serum-depleted, 2 h with compound, immunoprecipitation / anti-phosphotyrosine blot
T1 construct: WtAXL cDNA was cloned into vector pLXSN(ESK) and transfected into Phoenix E packaging cells; expressed in transfected cells; host or cells: NIH3T3 N7 mouse fibroblasts, retrovirally infected (clone 22)
T1 sequence (P30530 26-894): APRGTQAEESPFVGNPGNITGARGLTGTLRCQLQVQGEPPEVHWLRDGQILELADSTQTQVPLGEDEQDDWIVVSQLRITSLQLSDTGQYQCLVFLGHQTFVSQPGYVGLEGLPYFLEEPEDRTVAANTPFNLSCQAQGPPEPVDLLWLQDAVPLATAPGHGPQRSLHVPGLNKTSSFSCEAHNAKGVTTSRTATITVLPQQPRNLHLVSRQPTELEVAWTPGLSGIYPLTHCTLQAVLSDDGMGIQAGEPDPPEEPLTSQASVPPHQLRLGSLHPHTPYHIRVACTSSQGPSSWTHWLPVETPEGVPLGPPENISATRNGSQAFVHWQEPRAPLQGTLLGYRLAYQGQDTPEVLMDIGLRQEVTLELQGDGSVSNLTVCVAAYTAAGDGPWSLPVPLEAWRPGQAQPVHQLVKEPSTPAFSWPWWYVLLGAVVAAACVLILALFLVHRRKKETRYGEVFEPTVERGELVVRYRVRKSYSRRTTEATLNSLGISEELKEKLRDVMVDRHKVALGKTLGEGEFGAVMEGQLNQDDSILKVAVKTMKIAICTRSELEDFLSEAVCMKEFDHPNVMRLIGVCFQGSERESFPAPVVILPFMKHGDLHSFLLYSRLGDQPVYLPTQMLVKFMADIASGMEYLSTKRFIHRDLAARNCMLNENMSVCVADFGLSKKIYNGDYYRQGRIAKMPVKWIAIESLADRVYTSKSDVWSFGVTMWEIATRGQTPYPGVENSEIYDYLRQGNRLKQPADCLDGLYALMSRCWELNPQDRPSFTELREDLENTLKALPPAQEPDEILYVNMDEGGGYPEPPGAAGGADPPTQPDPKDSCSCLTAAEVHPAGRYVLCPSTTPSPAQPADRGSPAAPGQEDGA
Procedure: 3) Inhibitory Activity of Compounds on Axl Phosphorylation in NIH-3T3-AXL Cellular Tyrosine Kinase Assay
The viral supernatant was collected and used to infect target cells NIH3T3 N7. Monoclonal NIH3T3-AXL cell lines stably expressing wtAXL were generated by selecting retrovirally infected cells in medium containing puromycin (2 μg/ml) and subsequent clonal separation.
NIH-3T3-AXL Cellular Kinase Assay
Serial dilutions of compounds were added, and the cells were further incubated or 2 h. […] The clarified cell lysate (10 min at 13000 rpm at 4° C.) were used for immunoprecipitation. Equal amounts of protein were mixed with 2 μg anti-AXL polyclonal antibody (homemade) and 20 μl Protein A sepharose beads, and rotated for 6 hr at 4° C. After immunoprecipitation, the beads were washed three times with 1×HNTG (50 mM HEPES (pH 7.5), 150 mM NaCl, 10% Glycerol, 0.2% Triton X-100). The final pellet was suspended in 20 μl 2× Laemmli buffer, and boiled for 5 min at 100° C. […] The membrane was then incubated with anti-phosphotyrosine antibody (4G10) overnight at 4° C. followed by washing with 1×TBST buffer three times. After incubating membrane with HRP-conjugated anti-mouse secondary antibody for 1 hour at room temperature followed by washing with 1×TBST buffer three times, the proteins were visualized by ECL.

Structure (SMILES) | IC50 [1] [nM] | melting point [°C]
COc1cc2nccc(Oc3ccc(NS(=O)(=O)c4ccc(Br)cc4C(F)(F)F)c(F)c3)c2cc1OC [Example A48, 4-Bromo-N-[4-(6,7-dimethoxy-quinolin-4-yloxy)-2-fluoro-phenyl]-2-trifluoromethyl-benzenesulfonamide] | 1500 | 242 to 244
COc1cc2nccc(Oc3ccc(NS(=O)(=O)c4cc(Cl)cc(Cl)c4OC)c(F)c3)c2cc1OC [Example A50, 3,5-Dichloro-N-[4-(6,7-dimethoxy-quinolin-4-yloxy)-2-fluoro-phenyl]-2-methoxy-benzenesulfonamide] | < 1000 | 193 to 195
COc1cc2nccc(Oc3ccc(NS(=O)(=O)c4ccccc4OC)c(F)c3)c2cc1OC [Example A52, N-[4-(6,7-Dimethoxy-quinolin-4-yloxy)-2-fluoro-phenyl]-2-methoxy-benzenesulfonamide] | > 3000 | 213 to 215
COc1cc2nccc(Oc3ccc(NS(=O)(=O)c4ccccc4Cl)c(F)c3)c2cc1OC [Example A54, 2-Chloro-N-[4-(6,7-dimethoxy-quinolin-4-yloxy)-2-fluoro-phenyl]-benzenesulfonamide] | > 1000 | 232 to 234
COc1cc2nccc(Oc3ccc(NS(=O)(=O)c4ccccc4Br)c(F)c3)c2cc1OC [Example A55, 2-Bromo-N-[4-(6,7-dimethoxy-quinolin-4-yloxy)-2-fluoro-phenyl]-benzenesulfonamide] | > 1000 | 225 to 227
CCc1ccc(S(=O)(=O)Nc2ccc(Oc3ccnc4cc(OC)c(OC)cc34)cc2F)cc1 [Example A56, N-[4-(6,7-Dimethoxy-quinolin-4-yloxy)-2-fluoro-phenyl]-4-ethyl-benzenesulfonamide] | > 1000 | 193 to 195
COc1cc2nccc(Oc3ccc(NS(=O)(=O)c4ccc(Oc5ccccc5)cc4)c(F)c3)c2cc1OC [Example A57, N-[4-(6,7-Dimethoxy-quinolin-4-yloxy)-2-fluoro-phenyl]-4-phenoxy-benzenesulfonamide] | > 3000 | 202 to 204
COc1cc2nccc(Oc3ccc(NS(=O)(=O)c4cccc(F)c4C)c(F)c3)c2cc1OC [Example A58, N-[4-(6,7-Dimethoxy-quinolin-4-yloxy)-2-fluoro-phenyl]-3-fluoro-2-methyl-benzenesulfonamide] | > 1000 | 204 to 206
COc1cc2nccc(Oc3ccc(NS(=O)(=O)c4ccccc4F)c(F)c3)c2cc1OC [Example A59, N-[4-(6,7-Dimethoxy-quinolin-4-yloxy)-2-fluoro-phenyl]-2-fluoro-benzenesulfonamide] | > 1000 | 235 to 236
COc1cc2nccc(Oc3ccc(NS(=O)(=O)c4ccc(Br)c(Cl)c4)c(F)c3)c2cc1OC [Example A60, 4-Bromo-3-chloro-N-[4-(6,7-dimethoxy-quinolin-4-yloxy)-2-fluoro-phenyl]-benzenesulfonamide] | 800 | 231 to 232
COc1cc(S(=O)(=O)Nc2ccc(Oc3ccnc4cc(OC)c(OC)cc34)cc2F)ccc1F [Example A61, N-[4-(6,7-Dimethoxy-quinolin-4-yloxy)-2-fluoro-phenyl]-4-fluoro-3-methoxy-benzenesulfonamide] | 700 | 214 to 216
CCOc1ccc(S(=O)(=O)Nc2ccc(Oc3ccnc4cc(OC)c(OC)cc34)cc2F)cc1C [Example A62, N-[4-(6,7-Dimethoxy-quinolin-4-yloxy)-2-fluoro-phenyl]-4-ethoxy-3-methyl-benzenesulfonamide] | 470 | 158 to 160
COc1cc2nccc(Oc3ccc(NS(=O)(=O)c4ccc(OC)c5ccccc45)c(F)c3)c2cc1OC [Example A63, 4-Methoxy-naphthalene-1-sulfonic acid [4-(6,7-dimethoxy-quinolin-4-yloxy)-2-fluoro-phenyl]-amide] | > 1000 | 226 to 227
COc1cc2nccc(Oc3ccc(NS(=O)(=O)c4cc(C)c(C)cc4OC)c(F)c3)c2cc1OC [Example A64, N-[4-(6,7-Dimethoxy-quinolin-4-yloxy)-2-fluoro-phenyl]-2-methoxy-4,5-dimethyl-benzenesulfonamide] | > 1000 | 238 to 240
COc1cc2nccc(Oc3ccc(NS(=O)(=O)c4cc(C)ccc4NC(C)=O)cc3)c2cc1OC [Example A65, N-{2-[4-(6,7-Dimethoxy-quinolin-4-yloxy)-phenylsulfamoyl]-4-methyl-phenyl}-acetamide] | > 10000 | 134 to 136
COc1cc2nccc(Oc3ccc(NS(=O)(=O)c4cc(C)c(NC(C)=O)c(C)c4)cc3)c2cc1OC [Example A66, N-{4-[4-(6,7-Dimethoxy-quinolin-4-yloxy)-phenylsulfamoyl]-2,6-dimethyl-phenyl}-acetamide] | > 10000 | 145 to 147
COc1ccc(S(=O)(=O)Nc2ccc(Oc3ccnc4cc(OC)c(OC)cc34)cc2)cc1Cl [Example A67, 3-Chloro-N-[4-(6,7-dimethoxy-quinolin-4-yloxy)-phenyl]-4-methoxy-benzenesulfonamide] | > 10000 | 226 to 227
COc1cc2nccc(Oc3ccc(NS(=O)(=O)c4cc(Cl)ccc4OC)cc3)c2cc1OC [Example A68, 5-Chloro-N-[4-(6,7-dimethoxy-quinolin-4-yloxy)-phenyl]-2-methoxy-benzenesulfonamide] | > 10000 | 255 to 257
COc1cc2nccc(Oc3ccc(NS(=O)(=O)c4cc(Cl)c(C)cc4OC)cc3)c2cc1OC [Example A69, 5-Chloro-N-[4-(6,7-dimethoxy-quinolin-4-yloxy)-phenyl]-2-methoxy-4-methyl-benzenesulfonamide] | > 10000 | 236 to 238
COc1cc2nccc(Oc3ccc(NS(=O)(=O)c4ccc(OC)c(C(C)(C)C)c4)cc3)c2cc1OC [Example A70, 3-tert-Butyl-N-[4-(6,7-dimethoxy-quinolin-4-yloxy)-phenyl]-4-methoxy-benzenesulfonamide] | > 10000 | 229 to 231
CCCCS(=O)(=O)Nc1ccc(Oc2ccnc3cc(OC)c(OC)cc23)cc1F [Example A71, Butane-1-sulfonic acid [4-(6,7-dimethoxy-quinolin-4-yloxy)-2-fluoro-phenyl]-amide] | > 3000 | 164 to 166
COc1cc2nccc(Oc3ccc(NS(=O)(=O)CC(C)C)c(F)c3)c2cc1OC [Example A72, 2-Methyl-propane-1-sulfonic acid [4-(6,7-dimethoxy-quinolin-4-yloxy)-2-fluoro-phenyl]-amide] | 580 | 175 to 176
COc1cc2nccc(Oc3ccc(NS(=O)(=O)Cc4ccccc4)c(F)c3)c2cc1OC [Example A73, N-[4-(6,7-Dimethoxy-quinolin-4-yloxy)-2-fluoro-phenyl]-C-phenyl-methanesulfonamide] | > 3000 | 204 to 205
COc1ccc(S(=O)(=O)Nc2ccc(Oc3ccnc4cc(OC)c(OC)cc34)cc2)cc1Br [Example A74, 3-Bromo-N-[4-(6,7-dimethoxy-quinolin-4-yloxy)-phenyl]-4-methoxy-benzenesulfonamide] | > 1000 | 211 to 212
COc1cc2nccc(Oc3ccc(NS(=O)(=O)c4cccc(-c5ccccc5)c4)cc3C)c2cc1OC [Example A75, Biphenyl-3-sulfonic acid [4-(6,7-dimethoxy-quinolin-4-yloxy)-3-methyl-phenyl]-amide] | > 3000 | 178 to 180
